Test results: US11013687B1, “Preventive and therapeutic treatment for COVID 19 and any other disease caused by SARS CoV 2” (priority 2020, dated 2021)

Experiments:
SARS-CoV-2 = type: cell-based
[1] = used in much larger amounts as food additive and sweetener than for nasal delivery; cited from earlier work
[2] = cited from earlier work

Row | Compound | capable of inhibiting SARS CoV 2 in vitro (in words) (SARS-CoV-2; xylitol alone) | safety for humans [1] | Log reduction of TCID50/mL after 48 hs. (mean of three replicates) (SARS-CoV-2; 6 μg/mL iota carrageenan, Vero E6, treated pre- and post-infection, 48 h, vs virus only, LOD in next column = titre at limit of detection) | concentration capable of inhibiting SARS CoV 2 in vitro (SARS-CoV-2; concentration of iota Carrageenan, alone or in combination with xylitol) | time iota Carrageenan stays in the nasal mucosa ([2]; clinical trials with a formulation containing xylometazoline and iota Carrageenan) | residence time ([2]; nasal, estimation basis for dosing each 4 hours)
1 | OC[C@@H](O)[C@H](O)[C@@H](O)CO [xylitol, Xylitol] | capable of inhibiting SARS CoV 2 in vitro | safe for humans | – | – | – | –
2 | iota Carrageenan | – | safe for humans | significantly reducing viral titers | not less than 6 μg/mL | about 4 hrs | approximately 4 hour
